Assay results published in patent publication EP4559908A1, “HETEROARYL DERIVATIVE COMPOUND AND USE THEREOF” (S2CBio Inc., priority 2022, dated 2024).
Read-outs that look alike come from different tables or passages of the source.

Molecular target: T1, human ANO6 (variant 5) (Homo sapiens, UniProt Q4KMQ2)
T1 construct: expressed in transfected cells; host or cells: Fischer rat thyroid (FRT) cells
T1 sequence (Q4KMQ2 1-931 isoform Q4KMQ2-2): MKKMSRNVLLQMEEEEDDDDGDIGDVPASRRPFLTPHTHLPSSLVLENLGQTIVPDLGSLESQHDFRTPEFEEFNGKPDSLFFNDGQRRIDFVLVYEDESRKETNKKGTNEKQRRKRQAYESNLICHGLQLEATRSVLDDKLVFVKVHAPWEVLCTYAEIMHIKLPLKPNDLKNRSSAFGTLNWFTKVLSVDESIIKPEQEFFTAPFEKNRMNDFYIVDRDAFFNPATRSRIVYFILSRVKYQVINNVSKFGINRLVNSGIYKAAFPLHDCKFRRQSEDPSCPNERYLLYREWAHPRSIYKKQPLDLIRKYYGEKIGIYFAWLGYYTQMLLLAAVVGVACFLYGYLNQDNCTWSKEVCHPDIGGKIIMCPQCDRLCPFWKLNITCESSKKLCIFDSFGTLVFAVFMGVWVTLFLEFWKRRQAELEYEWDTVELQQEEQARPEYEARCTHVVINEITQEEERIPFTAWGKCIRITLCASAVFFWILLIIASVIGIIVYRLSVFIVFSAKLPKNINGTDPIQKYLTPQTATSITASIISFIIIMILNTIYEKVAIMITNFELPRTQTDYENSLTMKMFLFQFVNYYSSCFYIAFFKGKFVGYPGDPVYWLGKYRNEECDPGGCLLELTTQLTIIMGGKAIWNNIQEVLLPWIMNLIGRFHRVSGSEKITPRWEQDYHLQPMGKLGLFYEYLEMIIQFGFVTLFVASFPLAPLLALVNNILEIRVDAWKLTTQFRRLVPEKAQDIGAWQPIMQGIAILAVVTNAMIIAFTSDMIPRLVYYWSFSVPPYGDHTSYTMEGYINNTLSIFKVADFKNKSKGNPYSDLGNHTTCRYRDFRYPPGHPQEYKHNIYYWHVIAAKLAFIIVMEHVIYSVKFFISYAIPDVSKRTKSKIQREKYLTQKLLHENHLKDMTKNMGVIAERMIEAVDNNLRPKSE
Test: Lact C2 assay (measuring phosphatidylserine externalization scramblase function)
Assay type: cell-based
Conditions: FRT, FRT cells expressing human ANO6 (variant 5), ionomycin 10 µM, Lact-C2-GFP fluorescence, average of three tests; for inhibition at 0.05 µM: compound 50 nM, read-out: % Inhibition 50 nM
Procedure, shortened: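 Cells were pretreated 10 min with compound (50 nM, 100 nM, 1 µM; 1% DMSO), then given 10 µM ionomycin for 10 min. Surface phosphatidylserine was stained with 500 nM Lact-C2-GFP (10 min, 37 °C), fixed and imaged. Inhibition was scaled between untreated (100%) and ionomycin-alone (0%) wells.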

[1] = compound 1 µM, read-out: % Inhibition 1 µM

Row | Compound | inhibition at 1 µM [1] [%] | inhibition at 0.05 µM [%] | inhibition at 1 µM (read-out: % Inhibition 1 µM, compound 1 µM) [%]
1 | COc1cc(-c2cccnn2)ccc1Nc1cccc(-c2nc3ccccc3[nH]2)c1 [Example 210, N-(3-(1H-benzo[d]imidazol-2-yl)phenyl)-2-methoxy-4-(pyridazin-3-yl)aniline] | 30 to 60 |  | 
2 | CN(C)c1ccc2nc(-c3cccc(Nc4ccc(-c5cccnn5)cc4)c3)[nH]c2c1 [Example 217, N,N-dimethyl-2-(3-((4-(pyridazin-3-yl)phenyl)amino)phenyl)-1H-benzo[d]imidazol-6-amine] | > 60 | 30 to 60 | 
3 | Brc1cc2[nH]c(-c3cccc(Nc4ccc(-c5cccnn5)cc4)c3)nc2cn1 [Example 218, 3-(6-bromo-1H-imidazo[4,5-c]pyridin-2-yl)-N-(4-(pyridazin-3-yl)phenyl)aniline] |  | 30 to 60 | 
4 | c1cc(Nc2ccc(-c3cccnn3)cc2)cc(-c2nc3ncccc3[nH]2)c1 [Example 219, 3-(1H-imidazo[4,5-b]pyridin-2-yl)-N-(4-(pyridazin-3-yl)phenyl)aniline] | > 60 |  | 
5 | c1ccc(COc2ccc3nc(-c4cccc(Nc5ccc(-c6cccnn6)cc5)c4)[nH]c3c2)cc1 [Example 222, 3-(6-(benzyloxy)-1H-benzo[d]imidazol-2-yl)-N-(4-(pyridazin-3-yl)phenyl)aniline] | > 60 | > 60 | 
6 | COc1ccc2nc(-c3cccc(Nc4ccc(-c5cccnn5)cc4)c3)[nH]c2c1 [Example 223, 3-(6-methoxy-1H-benzo[d]imidazol-2-yl)-N-(4-(pyridazin-3-yl)phenyl)aniline] | > 60 | > 60 | 
7 | Clc1cc2nc(-c3cccc(Nc4ccc(-c5cccnn5)cc4)c3)[nH]c2cc1Cl [Example 225, 3-(5,6-dichloro-1H-benzo[d]imidazol-2-yl)-N-(4-(pyridazin-3-yl)phenyl)aniline] |  | > 60 | 
8 | O=[N+]([O-])c1ccc2nc(-c3cccc(Nc4ccc(-c5cccnn5)cc4)c3)[nH]c2c1 [Example 227, 3-(6-nitro-1H-benzo[d]imidazol-2-yl)-N-(4-(pyridazin-3-yl)phenyl)aniline] | > 60 | > 60 | 
9 | c1ccc(CNc2ccc3nc(-c4cccc(Nc5ccc(-c6cccnn6)cc5)c4)[nH]c3c2)cc1 [Example 229, N-benzyl-2-(3-((4-(pyridazin-3-yl)phenyl)amino)phenyl)-1H-benzo[d]imidazol-6-amine] | > 60 |  | 
10 | N#Cc1ccc2nc(-c3cccc(Nc4ccc(-c5cccnn5)cc4)c3)[nH]c2c1 [Example 231, 2-(3-((4-(pyridazin-3-yl)phenyl)amino)phenyl)-1H-benzo[d]imidazole-6-carbonitrile] | > 60 |  | 
11 | FC(F)(F)c1cc2[nH]c(-c3cccc(Nc4ccc(-c5ccccn5)cn4)c3)nc2cn1 [Example 238, N-(3-(6-(trifluoromethyl)-1H-imidazo [4,5-c]pyridin-2-yl)phenyl)-[2,3'-bipyridin]-6'-amine] | > 60 | > 60 | 
12 | FC(F)(F)c1cc2[nH]c(-c3cccc(Nc4ncc(-c5ccccn5)cn4)c3)nc2cn1 [Example 242, 5-(pyridin-2-yl)-N-(3-(6-(trifluoromethyl)-1H-imidazo[4,5-c]pyridin-2-yl)phenyl)pyrimidin-2-amine] | > 60 | > 60 | 
13 | FC(F)(F)c1cnc2nc(-c3cccc(Nc4ncc(-c5ccccn5)cn4)c3)[nH]c2c1 [Example 243, 5-(pyridin-2-yl)-N-(3-(6-(trifluoromethyl)-1H-imidazo[4,5-b]pyridin-2-yl)phenyl)pyrimidin-2-amine] | > 60 | 30 to 60 | 
14 | FC(F)(F)c1ccc2[nH]c(-c3cccc(Nc4ncc(-c5ccccn5)cn4)c3)nc2n1 [Example 244, 5-(pyridin-2-yl)-N-(3-(5-(trifluoromethyl)-1H-imidazo[4,5-b]pyridin-2-yl)phenyl)pyrimidin-2-amine] | > 60 | 30 to 60 | 
15 | Fc1ccc2nc(-c3cccc(Nc4ncc(-c5ncccn5)cn4)c3)[nH]c2c1 [Example 247, N-(3-(6-fluoro-1H-benzo[d]imidazol-2-yl)phenyl)-[2,5'-bipyrimidin]-2'-amine] | 30 to 60 |  | 
16 | FC(F)(F)c1cc2[nH]c(-c3cccc(Nc4ccc(-c5cccnn5)cn4)c3)nc2cn1 [Example 254, 5-(pyridazin-3-yl)-N-(3-(6-(trifluoromethyl)-1H-imidazo[4,5-c]pyridin-2-yl)phenyl)pyridin-2-amine] | > 60 | > 60 | 
17 | c1ccc(-c2ccc(Nc3cccc(-c4nc5ccccc5[nH]4)c3)nn2)nc1 [Example 255, N-(3-(1H-benzo[d]imidazol-2-yl)phenyl)-6-(pyridin-2-yl)pyrimidin-3-amine] |  |  | > 60

The next lines start with the values.

Row | inhibition at 1 µM [1] [%] | inhibition at 0.05 µM [%] | inhibition at 1 µM (read-out: % Inhibition 1 µM, compound 1 µM) [%] | Compound
18 |  | > 60 |  | Clc1ccc2nc(-c3cccc(Nc4ccc(-c5cccnn5)cc4)c3)[nH]c2c1 [Example 226, 3-(6-chloro-1H-benzo[d]imidazol-2-yl)-N-(4-(pyridazin-3-yl)phenyl)aniline]
19 | > 60 | > 60 |  | FC(F)(F)Oc1ccc2nc(-c3cccc(Nc4ccc(-c5cccnn5)cc4)c3)[nH]c2c1 [Example 230, N-(4-(pyridazin-3-yl)phenyl)-3-(6-(trifluoromethoxy)-1H-benzo[d]imidazol-2-yl)aniline]
20 | > 60 | > 60 |  | FC(F)(F)Oc1cc2[nH]c(-c3cccc(Nc4ccc(-c5cccnn5)cc4)c3)nc2cn1 [Example 232, N-(4-(pyridazin-3-yl)phenyl)-3-(6-(trifluoromethoxy)-1H-imidazo[4,5-c]pyridin-2-yl)aniline]
21 | > 60 | 30 to 60 |  | FC(F)(F)c1cnc2nc(-c3cccc(Nc4ccc(-c5cccnn5)cc4)c3)[nH]c2c1 [Example 234, N-(4-(pyridazin-3-yl)phenyl)-3-(6-(trifluoromethyl)-1H-imidazo[4,5-b]pyridin-2-yl)aniline]
22 | > 60 | 30 to 60 |  | FC(F)(F)c1ccc2[nH]c(-c3cccc(Nc4ccc(-c5cccnn5)cc4)c3)nc2n1 [Example 235, N-(4-(pyridazin-3-yl)phenyl)-3-(5-(trifluoromethyl)-1H-imidazo[4,5-b]pyridin-2-yl)aniline]
23 | > 60 |  |  | Fc1cccnc1-c1ccc(Nc2cccc(-c3nc4ccc(C(F)(F)F)cc4[nH]3)c2)cc1 [Example 251, N-(4-(3-fluoropyridin-2-yl)phenyl)-3-(6-(trifluoromethyl)-1H-benzo[d]imidazol-2-yl)aniline]
24 | > 60 | > 60 |  | Fc1cccc(-c2ccc(Nc3cccc(-c4nc5ccc(C(F)(F)F)cc5[nH]4)c3)cc2)n1 [Example 252, N-(4-(6-fluoropyridin-2-yl)phenyl)-3-(6-(trifluoromethyl)-1H-benzo[d]imidazol-2-yl)aniline]
25 | > 60 | > 60 |  | Fc1ccc(-c2ccc(Nc3cccc(-c4nc5ccc(C(F)(F)F)cc5[nH]4)c3)cc2)nc1 [Example 253, N-(4-(5-fluoropyridin-2-yl)phenyl)-3-(6-(trifluoromethyl)-1H-benzo[d]imidazol-2-yl)aniline]
26 | > 60 |  |  | FC(F)(F)c1ccc2nc(-c3cccc(Nc4ccc(-c5ccccn5)nn4)c3)[nH]c2c1 [Example 256, 6-(pyridin-2-yl)-N-(3-(6-(trifluoromethyl)-1H-benzo[d]imidazol-2-yl)phenyl)pyridazin-3-amine]
